Measurements: publication PMC5341070, “Small molecule inhibitors block Gas6-inducible TAM activation and tumorigenicity” (Scientific Reports, 2017)
Each block holds one compound with its values, some of them ahead of it.

Experiments:
Experiment in all cases: biochemical
Parameters in all cases: KINOMEscan (DiscoverX) competition binding screen of 97 human kinases, percent of control at 10 uM
[1] = target: T1, ABL1(E255K)-phosphorylated (Homo sapiens, UniProt P00519, E255K)
T1 construct: phosphorylated
Experimental: (§1) The KINOMEscan profiling of the inhibitors were performed as per directions by the manufacturer (DiscoverX) against a panel of human protein kinases.

[2] = target: T2, ABL1(T315I)-phosphorylated (Homo sapiens, UniProt P00519, T315I)
T2 construct: phosphorylated
Experimental: as §1

[3] = target: T3, ADCK3 (Homo sapiens, UniProt Q8NI60)
T3 construct: gene COQ8A
Experimental: as §1

[4] = target: ALK (Homo sapiens, UniProt Q9UM73)
Experimental: as §1

[5] = target: AURKB (Homo sapiens, UniProt Q96GD4)
Experimental: as §1

[6] = target: BMPR2 (Homo sapiens, UniProt Q13873)
Experimental: as §1

[7] = target: BRAF(V600E) (Homo sapiens, UniProt P15056, V600E)
Experimental: as §1

[8] = target: CDK9 (Homo sapiens, UniProt P50750)
Experimental: as §1

[9] = target: CSF1R (Homo sapiens, UniProt P07333)
Experimental: as §1

[10] = target: CSNK1D (Homo sapiens, UniProt P48730)
Experimental: as §1

[11] = target: CSNK1G2 (Homo sapiens, UniProt P78368)
Experimental: as §1

[12] = target: EPHA2 (Homo sapiens, UniProt P29317)
Experimental: as §1

[13] = target: T4, JNK1 (Homo sapiens, UniProt P45983)
T4 construct: gene MAPK8
Experimental: as §1

[14] = target: T5, JNK2 (Homo sapiens, UniProt P45984)
T5 construct: gene MAPK9
Experimental: as §1

[15] = target: T6, JNK3 (Homo sapiens, UniProt P53779)
T6 construct: gene MAPK10
Experimental: as §1

[16] = target: PAK2 (Homo sapiens, UniProt Q13177)
Experimental: as §1

[17] = target: PIK3C2B (Homo sapiens, UniProt O00750)
Experimental: as §1

[18] = target: PIM2 (Homo sapiens, UniProt Q9P1W9)
Experimental: as §1

[19] = target: RIOK2 (Homo sapiens, UniProt Q9BVS4)
Experimental: as §1

[20] = target: ROCK2 (Homo sapiens, UniProt O75116)
Experimental: as §1

[21] = target: SRPK3 (Homo sapiens, UniProt Q9UPE1)
Experimental: as §1

[22] = target: TGFBR1 (Homo sapiens, UniProt P36897)
Experimental: as §1

[23] = target: TSSK1B (Homo sapiens, UniProt Q9BXA7)
Experimental: as §1

[24] = read-out: R428 %Ctrl @ 10000nM, binding competition
[25] = binding competition, % of control, read-out: RU-301 %Ctrl @ 10000nM

Sequence of EPHA2 (P29317 whole entry): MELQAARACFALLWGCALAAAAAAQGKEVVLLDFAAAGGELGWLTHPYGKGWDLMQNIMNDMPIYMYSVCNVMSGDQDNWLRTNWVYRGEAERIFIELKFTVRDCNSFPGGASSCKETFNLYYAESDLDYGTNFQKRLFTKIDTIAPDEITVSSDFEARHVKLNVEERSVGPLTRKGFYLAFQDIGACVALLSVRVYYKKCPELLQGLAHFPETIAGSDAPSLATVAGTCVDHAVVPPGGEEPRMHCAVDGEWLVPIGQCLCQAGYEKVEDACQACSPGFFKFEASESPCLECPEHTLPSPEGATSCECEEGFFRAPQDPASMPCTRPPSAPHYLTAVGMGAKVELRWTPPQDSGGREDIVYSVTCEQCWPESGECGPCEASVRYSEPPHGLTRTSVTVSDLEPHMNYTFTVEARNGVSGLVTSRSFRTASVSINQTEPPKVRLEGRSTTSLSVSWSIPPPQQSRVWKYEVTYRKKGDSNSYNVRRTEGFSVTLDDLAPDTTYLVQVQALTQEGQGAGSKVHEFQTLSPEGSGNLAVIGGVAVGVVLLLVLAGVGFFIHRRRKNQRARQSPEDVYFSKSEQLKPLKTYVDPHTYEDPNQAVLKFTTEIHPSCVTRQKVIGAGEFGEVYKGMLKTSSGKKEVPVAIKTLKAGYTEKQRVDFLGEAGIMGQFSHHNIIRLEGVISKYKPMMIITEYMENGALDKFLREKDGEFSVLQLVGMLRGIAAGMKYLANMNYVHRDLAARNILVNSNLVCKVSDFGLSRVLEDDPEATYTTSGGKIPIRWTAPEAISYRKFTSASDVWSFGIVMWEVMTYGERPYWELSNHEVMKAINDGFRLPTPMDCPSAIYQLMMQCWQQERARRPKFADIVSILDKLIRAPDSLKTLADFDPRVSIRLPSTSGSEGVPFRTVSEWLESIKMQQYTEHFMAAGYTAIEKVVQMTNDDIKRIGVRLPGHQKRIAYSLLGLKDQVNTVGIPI
Sequence of TGFBR1 (P36897 whole entry): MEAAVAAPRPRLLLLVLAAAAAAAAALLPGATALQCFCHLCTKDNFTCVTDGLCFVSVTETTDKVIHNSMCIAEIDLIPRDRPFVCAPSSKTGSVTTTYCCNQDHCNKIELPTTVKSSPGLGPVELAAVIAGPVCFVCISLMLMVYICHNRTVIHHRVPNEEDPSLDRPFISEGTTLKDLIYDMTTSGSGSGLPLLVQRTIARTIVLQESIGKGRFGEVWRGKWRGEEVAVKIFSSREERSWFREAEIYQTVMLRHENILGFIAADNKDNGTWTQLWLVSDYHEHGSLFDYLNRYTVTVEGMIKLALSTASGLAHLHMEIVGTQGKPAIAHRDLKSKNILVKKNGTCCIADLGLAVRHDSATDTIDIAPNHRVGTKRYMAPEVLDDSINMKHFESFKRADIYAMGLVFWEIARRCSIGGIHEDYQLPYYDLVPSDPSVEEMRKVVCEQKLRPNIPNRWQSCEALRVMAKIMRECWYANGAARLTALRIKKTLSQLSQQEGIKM
T4 sequence (P45983 whole entry): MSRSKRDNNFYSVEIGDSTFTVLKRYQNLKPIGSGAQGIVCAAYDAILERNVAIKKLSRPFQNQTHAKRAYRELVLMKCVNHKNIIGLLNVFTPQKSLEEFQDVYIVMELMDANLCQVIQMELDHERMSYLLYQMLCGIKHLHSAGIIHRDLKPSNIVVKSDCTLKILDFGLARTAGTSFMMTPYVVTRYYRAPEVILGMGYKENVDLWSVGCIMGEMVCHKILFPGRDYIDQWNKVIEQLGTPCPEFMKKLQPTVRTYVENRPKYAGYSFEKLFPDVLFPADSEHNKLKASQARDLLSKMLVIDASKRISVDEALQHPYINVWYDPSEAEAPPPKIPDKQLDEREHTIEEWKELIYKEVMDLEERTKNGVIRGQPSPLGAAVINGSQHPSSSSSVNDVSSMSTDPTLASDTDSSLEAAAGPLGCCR
T5 sequence (P45984 whole entry): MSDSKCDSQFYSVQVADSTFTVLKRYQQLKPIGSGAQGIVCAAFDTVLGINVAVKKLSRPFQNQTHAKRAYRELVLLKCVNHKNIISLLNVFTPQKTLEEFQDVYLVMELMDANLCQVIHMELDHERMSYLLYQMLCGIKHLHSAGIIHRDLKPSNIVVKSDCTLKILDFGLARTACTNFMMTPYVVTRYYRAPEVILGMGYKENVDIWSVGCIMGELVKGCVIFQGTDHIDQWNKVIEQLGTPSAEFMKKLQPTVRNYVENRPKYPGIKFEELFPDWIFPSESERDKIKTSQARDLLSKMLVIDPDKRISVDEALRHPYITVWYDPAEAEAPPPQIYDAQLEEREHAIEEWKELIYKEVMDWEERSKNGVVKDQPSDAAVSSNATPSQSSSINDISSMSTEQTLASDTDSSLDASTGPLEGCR
Sequence of CSF1R (P07333 whole entry): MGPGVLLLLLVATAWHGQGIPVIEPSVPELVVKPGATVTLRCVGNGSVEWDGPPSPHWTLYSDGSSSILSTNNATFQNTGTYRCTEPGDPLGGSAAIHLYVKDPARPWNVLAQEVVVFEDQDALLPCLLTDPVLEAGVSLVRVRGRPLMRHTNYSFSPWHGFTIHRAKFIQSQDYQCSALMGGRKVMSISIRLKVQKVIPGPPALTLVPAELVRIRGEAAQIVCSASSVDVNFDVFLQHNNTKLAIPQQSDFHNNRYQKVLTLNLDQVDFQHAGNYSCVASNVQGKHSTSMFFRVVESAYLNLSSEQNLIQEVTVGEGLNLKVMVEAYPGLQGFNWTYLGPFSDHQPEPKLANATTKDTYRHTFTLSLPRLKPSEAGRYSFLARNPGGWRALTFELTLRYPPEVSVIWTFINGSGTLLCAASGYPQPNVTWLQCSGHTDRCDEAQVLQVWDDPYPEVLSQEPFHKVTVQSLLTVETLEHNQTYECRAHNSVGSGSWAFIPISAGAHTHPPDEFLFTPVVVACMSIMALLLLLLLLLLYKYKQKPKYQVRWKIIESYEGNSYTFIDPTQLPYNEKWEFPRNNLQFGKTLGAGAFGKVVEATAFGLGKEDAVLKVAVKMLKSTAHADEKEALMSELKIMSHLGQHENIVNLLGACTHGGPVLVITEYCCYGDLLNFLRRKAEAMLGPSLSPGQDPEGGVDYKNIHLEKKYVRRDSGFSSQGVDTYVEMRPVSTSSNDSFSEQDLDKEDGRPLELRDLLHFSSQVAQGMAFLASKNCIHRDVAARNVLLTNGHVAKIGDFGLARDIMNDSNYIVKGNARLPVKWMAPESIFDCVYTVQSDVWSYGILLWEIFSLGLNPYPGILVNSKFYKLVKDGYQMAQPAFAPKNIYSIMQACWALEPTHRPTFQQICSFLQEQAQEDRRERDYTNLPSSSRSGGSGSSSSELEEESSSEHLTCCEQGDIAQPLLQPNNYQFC
Sequence of AURKB (Q96GD4 whole entry): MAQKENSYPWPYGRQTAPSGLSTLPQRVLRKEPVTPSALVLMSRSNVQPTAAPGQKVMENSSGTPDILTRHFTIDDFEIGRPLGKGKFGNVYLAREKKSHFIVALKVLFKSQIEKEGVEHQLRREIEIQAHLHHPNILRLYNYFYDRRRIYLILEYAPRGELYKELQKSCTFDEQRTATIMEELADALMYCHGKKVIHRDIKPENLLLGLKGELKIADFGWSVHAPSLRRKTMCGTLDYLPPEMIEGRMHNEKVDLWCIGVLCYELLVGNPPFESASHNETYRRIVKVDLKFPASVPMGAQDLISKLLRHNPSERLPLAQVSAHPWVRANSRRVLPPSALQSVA
Sequence of BRAF(V600E) (P15056 whole entry V600E): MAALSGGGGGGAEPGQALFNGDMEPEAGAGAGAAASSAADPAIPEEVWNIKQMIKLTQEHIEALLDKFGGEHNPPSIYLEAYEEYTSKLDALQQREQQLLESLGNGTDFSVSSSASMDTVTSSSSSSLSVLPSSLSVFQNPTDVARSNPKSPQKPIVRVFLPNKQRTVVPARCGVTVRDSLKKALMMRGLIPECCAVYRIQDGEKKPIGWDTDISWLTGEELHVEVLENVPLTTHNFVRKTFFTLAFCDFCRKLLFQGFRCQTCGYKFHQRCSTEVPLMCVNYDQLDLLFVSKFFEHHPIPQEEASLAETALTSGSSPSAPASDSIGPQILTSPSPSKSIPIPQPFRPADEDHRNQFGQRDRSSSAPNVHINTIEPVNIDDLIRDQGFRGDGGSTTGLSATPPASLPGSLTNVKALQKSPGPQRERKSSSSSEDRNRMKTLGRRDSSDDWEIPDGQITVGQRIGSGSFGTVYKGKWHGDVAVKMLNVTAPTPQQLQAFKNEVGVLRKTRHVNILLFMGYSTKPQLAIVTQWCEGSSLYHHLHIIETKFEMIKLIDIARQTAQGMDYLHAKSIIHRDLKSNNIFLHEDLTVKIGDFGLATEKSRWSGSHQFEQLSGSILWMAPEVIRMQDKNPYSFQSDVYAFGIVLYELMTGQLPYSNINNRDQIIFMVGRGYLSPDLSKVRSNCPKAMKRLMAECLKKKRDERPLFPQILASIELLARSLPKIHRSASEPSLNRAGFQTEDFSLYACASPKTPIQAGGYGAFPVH
Sequence of CSNK1D (P48730 whole entry): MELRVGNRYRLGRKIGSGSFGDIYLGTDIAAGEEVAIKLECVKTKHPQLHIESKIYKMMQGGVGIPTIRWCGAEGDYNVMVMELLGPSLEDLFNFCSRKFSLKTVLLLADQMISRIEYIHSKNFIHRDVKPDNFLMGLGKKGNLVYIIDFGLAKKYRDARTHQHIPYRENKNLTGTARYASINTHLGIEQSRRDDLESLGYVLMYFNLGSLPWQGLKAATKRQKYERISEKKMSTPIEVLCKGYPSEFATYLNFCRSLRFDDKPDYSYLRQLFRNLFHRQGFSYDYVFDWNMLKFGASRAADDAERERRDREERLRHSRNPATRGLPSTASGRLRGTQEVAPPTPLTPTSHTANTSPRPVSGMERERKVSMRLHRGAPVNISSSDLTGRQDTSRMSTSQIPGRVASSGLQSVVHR

percent of control binding at 10 µM [1, 24]: 0.25%
percent of control binding at 10 µM [2, 24]: 0.9%
percent of control binding at 10 µM [3, 24]: 18%
percent of control binding at 10 µM [4, 24]: 60%
percent of control binding at 10 µM [5, 24]: 0.45%
percent of control binding at 10 µM [6, 24]: 23%
percent of control binding at 10 µM [7, 24]: 70%
percent of control binding at 10 µM [8, 24]: 92%
percent of control binding at 10 µM [9, 24]: 0.35%
percent of control binding at 10 µM [10, 24]: 98%
percent of control binding at 10 µM [11, 24]: 4.6%
percent of control binding at 10 µM [12, 24]: 71%
percent of control binding at 10 µM [13, 24]: 14%
percent of control binding at 10 µM [14, 24]: 96%
percent of control binding at 10 µM [15, 24]: 46%
percent of control binding at 10 µM [16, 24]: 69%
percent of control binding at 10 µM [17, 24]: 31%
percent of control binding at 10 µM [18, 24]: 100%
percent of control binding at 10 µM [19, 24]: 94%
percent of control binding at 10 µM [20, 24]: 3%
percent of control binding at 10 µM [21, 24]: 3.8%
percent of control binding at 10 µM [22, 24]: 75%
percent of control binding at 10 µM [23, 24]: 22%
Structure (SMILES): Nc1nc(Nc2ccc3c(c2)CC[C@@H](N2CCCC2)CC3)nn1-c1cc2c(nn1)-c1ccccc1CCC2 [R428]

remaining binding at 10 µM [1, 25]: 94%
remaining binding at 10 µM [2, 25]: 100%
remaining binding at 10 µM [3, 25]: 76%
remaining binding at 10 µM [4, 25]: 100%
remaining binding at 10 µM [5, 25]: 73%
remaining binding at 10 µM [6, 25]: 78%
remaining binding at 10 µM [7, 25]: 94%
remaining binding at 10 µM [8, 25]: 95%
remaining binding at 10 µM [9, 25]: 90%
remaining binding at 10 µM [10, 25]: 94%
remaining binding at 10 µM [11, 25]: 100%
remaining binding at 10 µM [12, 25]: 96%
remaining binding at 10 µM [13, 25]: 91%
remaining binding at 10 µM [14, 25]: 97%
remaining binding at 10 µM [15, 25]: 100%
remaining binding at 10 µM [16, 25]: 96%
remaining binding at 10 µM [17, 25]: 100%
remaining binding at 10 µM [18, 25]: 83%
remaining binding at 10 µM [19, 25]: 100%
remaining binding at 10 µM [20, 25]: 75%
remaining binding at 10 µM [21, 25]: 80%
remaining binding at 10 µM [22, 25]: 100%
remaining binding at 10 µM [23, 25]: 78%
Structure (SMILES): Cc1cc(CSc2ccccc2C(=O)NCCNc2ccc(C(F)(F)F)cc2[N+](=O)[O-])on1 [RU-301]
